This is an account of results in patent US20120196884A1, “UREA SUBSTITUTED SULPHONAMIDE DERIVATIVES” (BIOTIE THERAPIES CORPORATION, priority 2009, published 2012).

The structures appear in SMILES notation. “Also recorded” adds a separate entry of the source.

Test [1] relates to platelet adhesion to collagen. Briefly: Cellix microfluidic system: platelet adhesion to collagen coated capillary under flow. The test is classed as cell-based, human. More on the design: key to Inhibition of platelet adhesion to collagen: + indictes that the compound efficiently inhibited the platelet adhesion to collagen. Particulars: for Inhibition of platelet adhesion to collagen: whole blood, collagen coated capillary, shear 90 dynes/cm^2. As to the method: Cellix microfluidic platform models human blood vessels providing a dynamic set-up mimicking physiological conditions to test new therapeutic agents (Cellix Ltd). The platform was used to measure the platelet adhesion to collagen coated capillary under flow. An anti-coaculated whole blood sample was run through a collagen coated capillary under a constant shear and the size of thrombi on capillary wall was analyzed with analysis program (DucoCell, Cellix Ltd).
The capillary were coated with Horm collagen 20 μg/mL (Nycomed) and incubated for 24 h in +4° C. Background was blocked with 1% BSA (bovine serum albumin, Sigma) treatment for 30 min in room temperature. Blood was collected from a donor into blood collection tubes containing 40 μM PPACK (Dphenylalanyl-L-prolyl-L-arginine chloromethyl-ketone, Calbiochem) as anticoagulant. Blood was treated either with inhibitory compounds or vehicle controls. Samples were kept at room temperature for 5 minutes. The samples were run through the capillary with the constant shear rate (90 dynes/cm^2, Mirus 1.0 Nanopump, Cellix Ltd) for 5 min and capillary was washed with JNL buffer (6 mM Dextrose, 0.13 M NaCl, 9 mM Na Bicarb, 10 mM Na Citrate, 10 mM Tris base, 3 mM KCl, 0.81 mM KH2PO4, 0.9 mM MgCl2; pH was adjusted to 7.35 with 19 mM Citrate acid anhydrous, 37 mM Sodium citrate, 67 mM Dextrose) with the constant shear rate (90 dynes/cm^2) for 2 min. After that the average thrombi area on the capillary wall was analyzed with DucoCell analysis program (Cellix Ltd).

The subject of another test is PC-3 cells. As to the kind of experiment: PC-3 cell invasion through Matrigel. The test is classed as cell-based. Conditions: Homo sapiens, 72 hours. An excerpt:
The overexpression regulates cell adhesion and migration to and invasion through the extracellular matrix. By blocking the interaction between extracellular matrix components like collagen and α2β1 it is possible to block cancer cell migration and invasion in vitro. Prostate cancer cells (PC-3) expressing α2β1 endogenously were used to test the in vitro anticancer potential of the inhibitors of the present invention.
Invasion of PC-3 cells (CRL-1435, ATCC) through Matrigel was studied using BD Biocoat invasion inserts (BD Biosciences). Inserts were stored at −20° C. Before the experiments inserts were allowed to adjust to the room temperature. 500 μl of serum free media (Ham's F12K medium, 2 mM Lglutamine, 1.5 g/l sodium bicarbonate) was added into the inserts and allowed to rehydrate at 37° C. in cell incubator for two hours. The remaining media was aspirated. PC-3 cells were detached, pelleted and suspended into serum free media (50 000 cells/500 μL). 300 μL of cell suspension was added into the insert in the absence (control) or presence of the inhibitor according to the present invention. Inserts were placed on the 24-well plates; each well containing 700 μL of cell culture media with 3% of fetal bovine serum as chemoattractant. Cells were allowed to invade for 72 hours at 37° C. in cell incubator. Inserts were washed with 700 μL PBS, and fixed with 4% paraformaldehyde for 10 minutes. Paraformaldehyde was aspirated and cells were washed with 700 μL of PBS and inserts were stained by incubation with hematoxylin for 1 minute. The stain was removed by washing the inserts with 700 μL of PBS. Inserts were allowed to dry. Fixed invaded cells were calculated under the microscope. Invasion % was calculated as a comparison to the control.

The test system of a further test is whole blood. Briefly: PFA-100 platelet function analyzer, closure time of whole blood. It counts as cell-based. Particulars: PFA-100 analysis, collagen and ADP membrane. As to the method:
The PFA-100 is a high shear-inducing device that simulates primary haemostasis after injury of a small vessel. The system comprises a test-cartridge containing a biologically active membrane coated with collagen and ADP. An anticoaculated whole blood sample was run through a capillary under a constant vacuum. […] The time required to obtain full occlusion of the aperture was designated as the closure time. Each compound was added to the whole blood sample and the closure time was measured with PFA-100.
Blood was collected from a donor via venipuncture into evacuated blood collection Lithium heparin tubes (VenoJect, Terumo). Blood was aliquoted into 1.5 mL tubes and treated with either inhibitory compounds or controls (DMSO). Samples were kept at room temperature with rotation for 10 minutes and after that the closure time (Ct) of the blood was measured.

A further test deals with IL-6. Briefly: LPS-induced IL-6 release in whole blood. The test is classed as cell-based, human. Particulars: LPS 0.25 ng/mL, 2 h. As to the method: The inflammatory cells are shown to be dependent on α2β1 function during inflammatory process. The anti-inflammatory potential of the α2β1 modulators was studied by measuring the effect on the release of cytokines like IL-6 as an example from inflammatory cells. Lipopolysaccharide (LPS) was used to induce the production of IL-6. Anticoaculated whole blood sample was incubated with or without the integrin α2β1 inhibitor before LPS was added to induce the cytokine release. The amount of cytokine IL-6 released from peripheral blood leukocytes was measured from plasma samples 2 hours after the induction.
Blood was collected from the donors via venipuncture into evacuated Lithium heparin tubes (VenoJect, Terumo). Blood was treated with either α2β1 integrin inhibitors or vehicle control (DMSO). Samples were kept at room temperature for 5 minutes and lipopolysaccharide (LPS, 0.25 ng/mL) was added to induce cytokine release from peripheral blood lymphocytes. Samples were inculabted for 2 h in 37° C., the plasma was isolated and the amount of IL-6 was determined with Human IL-6 Quantikine ELISA Kit (R&D Systems).

For the molecule `CN(c1ccc(NC(=O)Nc2ccccc2)cc1)S(=O)(=O)c1cnn(-c2ccc(F)cn2)c1` [Compound B1], in test [1] (Cellix analysis, flow conditions), the “platelet adhesion to collagen coated capillary under flow (FIG. 1)” value is on record as “dose dependent inhibitory effect; also recorded: inhibits the platelet adhesion to collagen coated capillary under mimicking physiological flow conditions dose dependently”. The “Inhibition of platelet adhesion to collagen” value (“Inhibition … to collagen” for short) in test [1] is listed as “+”.
As to `CN(c1ccc(NC(=O)Nc2ccccc2)cc1)S(=O)(=O)c1ccc(-n2ccnc2)s1` [Compound B17], the “Inhibition … to collagen” value in test [1] is “+”.
Still for that read-out and setting: as for `CN(C)c1ccc(-c2ccc(S(=O)(=O)N(C)c3ccc(NC(=O)Nc4ccccc4)cc3)s2)cn1` [Compound B7], the entry is “+”.
Same read-out and setting: the value for `CN(c1ccc(NC(=O)Nc2ccccc2)cc1)S(=O)(=O)c1ccc(-c2ccccn2)s1` [Compound B11] was “+”.
Broadly, the inhibition is the percentage by which the read-out fell short of the control. `Cc1ccc(NC(=O)NCc2ccccc2)cc1NS(=O)(=O)c1cccc(-c2ccc(F)cc2)c1` [Compound B67] returned an inhibition at 5 µM with PC-3 cells of 10%. Further, the “Inhibition … to collagen” value in test [1] is recorded as “+”.
On to `CN(c1ccc(NC(=O)Nc2ccccc2)cc1)S(=O)(=O)c1ccc(Cl)cc1Cl` [Compound B77], for which the inhibition at 5 µM with PC-3 cells was found to be 40%.
The same measure, in the same setting: as for `CN(c1ccc(NC(=O)Nc2ccncc2)cc1)S(=O)(=O)c1cccc(-c2ccc(F)cc2)c1` [Compound B75], the figure is 38%; as for `COc1ccc(NC(=O)Nc2ccc(NS(=O)(=O)c3cccc(-c4ccc(F)cc4)c3)cc2)cc1` [Compound B72], 39%; as for `Cc1ccc(NC(=O)Nc2ccccc2)cc1N(C)S(=O)(=O)c1cccc(-c2ccc(F)cc2)c1` [Compound B63], 45%.
Same read-out and setting: as for `CN(c1ccc(NC(=O)Nc2ccccc2)cc1)S(=O)(=O)c1cncc(-c2ccc(F)cc2)c1` [Compound B52], the figure is 25%; as for `CN(c1ccc(NC(=O)Nc2ccccc2)cc1)S(=O)(=O)c1cccc(OC(F)F)c1` [Compound B68], 29%.
For the molecule `Cc1ccccc1NC(=O)Nc1ccc(C)c(NS(=O)(=O)c2cccc(-c3ccc(F)cc3)c2)c1` [Compound B42], the “Inhibition … to collagen” value in test [1] is recorded as “+”.
As to `Cc1nn(-c2ccc(F)cc2)c(C)c1S(=O)(=O)N(CCCO)c1ccc(NC(=O)Nc2ccccc2)cc1` [Compound B54], the “Inhibition … to collagen” value in test [1] is “+”.
In the test on PC-3 cells, `CN(c1ccc(NC(=O)Nc2ccccc2)cc1)S(=O)(=O)c1cc(C(F)(F)F)ccc1Cl` [Compound B80] returned an inhibition at 5 µM of 43%.
Turning to `CN(c1ccc(NC(=O)Nc2ccccc2)cc1)S(=O)(=O)c1cnn(-c2ccc(F)cc2)c1` [Compound B3], the “Inhibition … to collagen” value in test [1] was “+”.
With `O=C(NCc1ccccc1)Nc1ccc(NS(=O)(=O)c2cccc(-c3ccc(F)cc3)c2)cc1` [Compound B91], in the test on PC-3 cells, the inhibition at 5 µM is 56%.
`COCCOc1cccc(NC(=O)Nc2ccc(NS(=O)(=O)c3cccc(-c4ccc(F)cc4)c3)cc2)c1` [Compound B60] displayed an inhibition at 5 µM with PC-3 cells of 70%. For the same molecule, the “Inhibition … to collagen” value in test [1] is listed as “+”.
In the test on PC-3 cells, `O=C(Nc1ccccc1)Nc1ccc(Cl)c(NS(=O)(=O)c2cccc(-c3ccc(F)cc3)c2)c1` [Compound B86] gave an inhibition at 5 µM of 44%.
Consider `COc1ccc(-n2cc(S(=O)(=O)N(C)c3ccc(NC(=O)Nc4ccccc4)cc3)cn2)cn1` [Compound B109], for which the “Inhibition … to collagen” value in test [1] is recorded as “+”.
As to `O=C(Nc1ccccc1)Nc1ccc(NS(=O)(=O)c2cccc(-c3ccc(F)cc3)c2)cc1` [Compound B94], the “closure time (Ct) of the whole blood” value with whole blood is “increases the closure time (Ct)”. The molecule also gave an inhibition at 5 µM with PC-3 cells of 40%. Further, the “Inhibition … to collagen” value in test [1] is given as “+”.
Consider `CN(c1ccc(NC(=O)Nc2ccccc2)cc1)S(=O)(=O)c1ccc(-c2cc(C(F)(F)F)nn2C)s1` [Compound B19], for which the “Inhibition … to collagen” value in test [1] is reported as “+”.
As to `O=C(Nc1ccncc1)Nc1ccc(NS(=O)(=O)c2cccc(-c3ccc(F)cc3)c2)cc1` [Compound B93], the “Inhibition … to collagen” value in test [1] was “+”.
As for `CN(c1ccc(NC(=O)Nc2ccccc2)cc1)S(=O)(=O)c1ccc(-c2ccnn2C)s1` [Compound B6], in the test with IL-6, the “release of IL-6 after induction with LPS” value was “decreases the release of cytokines like IL-6”.
Take `O=C(Nc1ccccc1)Nc1ccc(N(CCCO)S(=O)(=O)c2cccc(-c3ccc(F)cc3)c2)cc1` [Compound B33]: the “Inhibition … to collagen” value in test [1] is given as “+”.
Molecule `Cc1ccccc1NC(=O)Nc1ccc(NS(=O)(=O)c2cccc(-c3ccc(F)cc3)c2)cc1` [Compound B64] showed an inhibition at 5 µM in the test on PC-3 cells of 42%.
Still for that read-out and setting: the value for `CN(c1ccc(NC(=O)Nc2ccccc2)cc1)S(=O)(=O)c1cccc(-c2ccc(F)cc2)c1` [Compound B55] was 76%.
In the test with PC-3 cells, `CN(c1ccc(NC(=O)Nc2ccccc2)cc1)S(=O)(=O)c1cccc(C#N)c1` [Compound B78] gave an inhibition at 5 µM of 30%. Further, the “Inhibition … to collagen” value in test [1] is on record as “+”.
Take `O=C(Nc1ccccc1)Nc1cc(NS(=O)(=O)c2cccc(-c3ccc(F)cc3)c2)ccc1Cl` [Compound B47]: 5 µM produced 96% inhibition in the test on PC-3 cells.
In the test on PC-3 cells, `Cc1ccc(NC(=O)Nc2ccccc2)cc1NS(=O)(=O)c1cccc(-c2ccc(F)cc2)c1` [Compound B40] yielded an inhibition at 5 µM of 98%. Moreover, the “Inhibition … to collagen” value in test [1] is “+”.
